The numbers were not newly measured in PubChem BioAssay AID1259409 (Chemical Carcinogenesis Research Information System (CCRIS), 2018), which cites them from elsewhere.

The series relates to rodent chemically induced tumor inhibition, incidence and multiplicity. Nature of the series: CCRIS tumor inhibitor studies.

For `N[C@@H](Cc1cc(I)c(Oc2cc(I)c(O)c(I)c2)c(I)c1)C(=O)O`, where the note is “Carcinogen: N-METHYL-N-NITROSOUREA [684-93-5], Dose [Inhibitor]: 3 UG/ML IN DRINKING WATER, 2 WKS BEFORE CARCINOGEN AND FOR 26 WKS AFTER, Route [Inhibitor]: DRINKING WATER, Species: RAT, Strain/Sex: SPRAGUE-DAWLEY/FEMALE, Target Tissue: Type of Lesion: MAMMARY GLAND: CARCINOMA, Dose [Carcinogen]: 50 MG/KG BW ONCE AT 7 WKS OF AGE (IN SALINE SOLUTION)”, the outcome is 8/11 (73%) vs 9/11 (82%) at 16 wks. In the case of `NC(C[Se][Se]CC(N)C(=O)O)C(=O)O` (stereo not drawn), the “tumour outcome (control, treated, inhibition, significance)” value is, setting by setting: (Carcinogen: 7,12-DIMETHYLBENZ[A]ANTHRACENE, 57-97-6, Dose [Inhibitor]: 0, 0.2 PPM IN DIET BEGINNING 3 D PRIOR TO CARCINOGEN DOSE AND CONTINUING FOR 8 MO (STUDY DURATION: 8 MO), Route [Inhibitor]: ORAL, Species: MOUSE, Strain/Sex: BALB/FEMALE, Target Tissue: Type of Lesion: MAMMARY GLAND: ADENOCARCINOMA, Dose [Carcinogen]: 1 MG/WK FOR 6 WK, Promoter: NONE USED) 12/31 (39%), 8/28 (29%), 26%, not calculated; (Carcinogen: 7,12-DIMETHYLBENZ[A]ANTHRACENE, 57-97-6, Dose [Inhibitor]: 0, 2 PPM IN DIET BEGINNING 3 D PRIOR TO CARCINOGEN DOSE AND CONTINUING FOR 8 MO (STUDY DURATION: 8 MO), Route [Inhibitor]: ORAL, Species: MOUSE, Strain/Sex: BALB/FEMALE, Target Tissue: Type of Lesion: MAMMARY GLAND: ADENOCARCINOMA, Dose [Carcinogen]: 1 MG/WK FOR 6 WK, Promoter: NONE USED) 12/31 (39%), 7/24 (29%), 26%, not calculated. As for `N[C@@H](CS)C(=O)O`, the “tumour outcome (control, treated, inhibition, significance)” value runs as follows: (Carcinogen: 7,12-DIMETHYLBENZ[A]ANTHRACENE, 57-97-6, Dose [Inhibitor]: 0.03 NMOL/G DIET DAILY FOR 17 WK STARTING 1 WK PRIOR TO CARCINOGEN TREATMENT AND CONTINUING THROUGH THE END OF THE STUDY, Route [Inhibitor]: ORAL, Species: RAT, Strain/Sex: SPRAGUE-DAWLEY/FEMALE, Target Tissue: Type of Lesion: MAMMARY GLAND: TUMOR, Dose [Carcinogen]: 12 MG IN 1 ML OLIVE OIL ONCE, Promoter: NONE USED) 59%, 61%, -3%, not significant; (Carcinogen: TRANS-5-AMINO-3-[2-(5-NITRO-2-FURYL)VINYL]-1,2,4-OXADIAZOLE;SQL8506, 28754-68-9, Carcinogen: TRANS-5-AMINO-3-[2-(5-NITRO-2-FURYL)VINYL]-1,2,4-OXADIAZOLE;SQL8506, 28754-68-9, Dose [Inhibitor]: 100 MG/KG 16 HR BEFORE THE 1ST CARCINOGEN DOSE FOLLOWED BY ADDITIONAL DOSES IMMEDIATELY BEFORE EACH DOSE OF CARCINOGEN (, Route [Inhibitor]: INTRAPERITONEAL, Species: MOUSE, Strain/Sex: CD-1/FEMALE, Target Tissue: Type of Lesion: HEMATOPOIETIC SYSTEM: MYELOID LEUKEMIA, Dose [Carcinogen]: 1 G/KG 2/D FOR 5 D EVERY 4 WK, Promoter: NONE USED) 7/137 (5%), 1/32 (3%), 40%, not calculated; (Carcinogen: TRANS-5-AMINO-3-[2-(5-NITRO-2-FURYL)VINYL]-1,2,4-OXADIAZOLE;SQL8506, 28754-68-9, Carcinogen: TRANS-5-AMINO-3-[2-(5-NITRO-2-FURYL)VINYL]-1,2,4-OXADIAZOLE;SQL8506, 28754-68-9, Dose [Inhibitor]: 100 MG/KG 16 HR BEFORE THE 1ST CARCINOGEN DOSE FOLLOWED BY ADDITIONAL DOSES IMMEDIATELY BEFORE EACH DOSE OF CARCINOGEN (, Route [Inhibitor]: INTRAPERITONEAL, Species: MOUSE, Strain/Sex: CD-1/FEMALE, Target Tissue: Type of Lesion: LYMPHOID TISSUE: NONTHYMIC LYMPHOMA, Dose [Carcinogen]: 1 G/KG 2/D FOR 5 D EVERY 4 WK, Promoter: NONE USED) 8/137 (6%), 1/32 (3%), 50%, not calculated; (Carcinogen: TRANS-5-AMINO-3-[2-(5-NITRO-2-FURYL)VINYL]-1,2,4-OXADIAZOLE;SQL8506, 28754-68-9, Carcinogen: TRANS-5-AMINO-3-[2-(5-NITRO-2-FURYL)VINYL]-1,2,4-OXADIAZOLE;SQL8506, 28754-68-9, Dose [Inhibitor]: 100 MG/KG 16 HR BEFORE THE 1ST CARCINOGEN DOSE FOLLOWED BY ADDITIONAL DOSES IMMEDIATELY BEFORE EACH DOSE OF CARCINOGEN (, Route [Inhibitor]: INTRAPERITONEAL, Species: MOUSE, Strain/Sex: CD-1/FEMALE, Target Tissue: Type of Lesion: LYMPHOID TISSUE: THYMIC LYMPHOMA, Dose [Carcinogen]: 1 G/KG 2/D FOR 5 D EVERY 4 WK, Promoter: NONE USED) 22/137 (16%), 5/32 (16%), 0%, not calculated; (Carcinogen: TRANS-5-AMINO-3-[2-(5-NITRO-2-FURYL)VINYL]-1,2,4-OXADIAZOLE;SQL8506, 28754-68-9, Carcinogen: TRANS-5-AMINO-3-[2-(5-NITRO-2-FURYL)VINYL]-1,2,4-OXADIAZOLE;SQL8506, 28754-68-9, Dose [Inhibitor]: 100 MG/KG 16 HR BEFORE THE 1ST CARCINOGEN DOSE FOLLOWED BY ADDITIONAL DOSES IMMEDIATELY BEFORE EACH DOSE OF CARCINOGEN (, Route [Inhibitor]: INTRAPERITONEAL, Species: MOUSE, Strain/Sex: CD-1/FEMALE, Target Tissue: Type of Lesion: STOMACH: SQUAMOUS CARCINOMA, Dose [Carcinogen]: 1 G/KG 2/D FOR 5 D EVERY 4 WK, Promoter: NONE USED) 60/137 (44%), 9/32 (28%), 36%, not calculated. Take `Cc1cnc(NC(=O)C2=C(O)c3ccccc3S(=O)(=O)N2C)s1`: where the note is “Carcinogen: N-NITROSOBIS(2-OXOPROPYL)AMINE [60599-38-4], Dose [Inhibitor]: 5 MG/KG EACH WEEKDAY OVER A PERIOD OF 16 WKS STARTING AT 4 WKS (STUDY DURATION: 20 WKS), Route [Inhibitor]: ORAL (GAVAGE?), Species: HAMSTER, Strain/Sex: SYRIAN GOLDEN/FEMALE, Target Tissue: Type of Lesion: GALL BLADDER: CARCINOMA IN SITU, Dose [Carcinogen]: 10 MG/KG BW AT WKS 4, 6, 8, 10, 12, 14, 16, 18 (8 DOSES) (STUDY DURATION: 20 WKS)”, the “tumour outcome (control, treated, inhibition, significance)” value is on record as 4/11 (36%), 0/11 (0%), 100%, not significant.

For `CC1=C(/C=C/C(C)=C/C=C/C(C)=C/C(=O)NCCCCO)C(C)(C)CCC1`, the “tumour outcome (control, treated, inhibition, significance)” value reads like this: (Carcinogen: N-BUTYL-N-(4-HYDROXYBUTYL)NITROSAMINE, 3817-11-6, Dose [Inhibitor]: 1.5 MMOL/KG DIET DAILY FOR 133 D STARTING ONE WK AFTER THE FINAL CARCINOGEN DOSE (STUDY DURATION: 190 D), Route [Inhibitor]: ORAL, Species: MOUSE, Strain/Sex: BDF/MALE, Target Tissue: Type of Lesion: URINARY BLADDER: TRANSITIONAL CELL CARCINOMA, Dose [Carcinogen]: 7.5 MG 1/WK FOR 8 WK, Promoter: NONE USED) 21/100 (21%), 21/100 (21%), 0%, not significant; (Carcinogen: N-BUTYL-N-(4-HYDROXYBUTYL)NITROSAMINE, 3817-11-6, Dose [Inhibitor]: 1.5 MMOL/KG IN DIET FOR 133 D STARTING 1 WK AFTER LAST CARCINOGEN DOSE (STUDY DURATION: 190 D), Route [Inhibitor]: ORAL, Species: MOUSE, Strain/Sex: DBF1/MALE, Target Tissue: Type of Lesion: URINARY BLADDER: TRANSITIONAL CELL CARCINOMA, Dose [Carcinogen]: 7.5 MG 1/WK FOR 8 WK, Promoter: NONE USED) 21/100 (21%), 21/100 (21%), 0%, not significant. On to `CN(C(=O)c1c(O)c2ccccc2n(C)c1=O)c1ccccc1`, for which the “tumour outcome (control, treated, inhibition, significance)” value (Carcinogen: N-METHYL-N-NITROSOUREA, 684-93-5, Dose [Inhibitor]: 0, 25 MG/KG/D IN DRINKING WATER FOR 12 MO BEGINNING 1 WK POST CARCINOGEN DOSE (STUDY DURATION: 12 MO), Route [Inhibitor]: ORAL, Species: RAT, Strain/Sex: LOBUND WISTAR/MALE, Target Tissue: Type of Lesion: SEMINAL VESICLE/PROSTATE: TUMOR, Dose [Carcinogen]: 30 MG/KG ONCE AT 90 D OF AGE, Promoter: TESTOSTERONE PROPIONATE, 57-85-2) is on record as 90%, 40%, 56%, not calculated.

`COC(=O)/C(C)=C/C=C/C(C)=C\C=C\C=C(C)\C=C\C=C(C)\C=C\C1=C(C)CCCC1(C)C`: the “tumour outcome (control, treated, inhibition, significance)” value (Carcinogen: BENZO[A]PYRENE, 50-32-8, Dose [Inhibitor]: 0, 4.7 MICROMOLAR/D IN 0.1 ML PEANUT OIL BEGINNING 2 WK PRIOR TO CARCINOGEN TREATMENT AND CONTINUING TO 2 WK POST CARCIN, Route [Inhibitor]: GAVAGE, Species: MOUSE, Strain/Sex: SWISS/FEMALE, Target Tissue: Type of Lesion: FORESTOMACH: TUMOR, Dose [Carcinogen]: 1 MG 2/WK IN 0.1 ML PEANUT OIL FOR 4 WK, Promoter: NONE USED) was 20/20 (100%), 4/20 (20%), 80%, p<0.001.
